Assay results from patent US20240116875A1, “RATIONAL DESIGN, OPTIMIZATION, AND BIOLOGICAL EVALUATION OF NOVEL MEK4 INHIBITORS AGAINST PANCREATIC ADENOCARCINOMA” (NORTHWESTERN UNIVERSITY, priority 2022, published 2024).
Values joined by “and” are separate entries in the source; they are usually repeats but may differ in a detail not shown here. Equal values may be shown once. Read-outs that look alike come from different tables or passages of the source.

Experiments:
[1] = test system: JNK phosphorylation in HEK293T cells; assay: anisomycin-induced JNK phosphorylation, western blotting, HEK293T; type: cell-based, human; conditions: anisomycin 45 minutes then compound 5 hours, increasing doses
Procedure: The blots are representative of at least three biological replicates.
(§1) We also examined the effects of these inhibitors on JNK phosphorylation and proliferation of two pancreatic cancer cell lines (CD18 and MiaPaCa2).
(§2) Human pancreatic cancer cell lines (CD18/HPAF-II and MiaPaCa2) and HEK293T cells were obtained from American Type Culture Collection. All cell lines were cultured according to the manufacturer's protocol. All media contained 10% Fetal Bovine Serum (FBS) and antibiotics (100 U/mL Penicillin and 100 μg/mL Streptomycin).
(§3) Whole cell extracts of cultured cells were prepared in radioimmunoprecipitation (RIPA) lysis buffer supplemented with phosphatase and protease inhibitors (Calbiochem). Protein concentration was determined by the bicinchoninic acid assay (BCA) (ThermoFisher) and separated by the SDS-PAGE technique. […] Secondary anti-mouse IgG (A4416) and anti-rabbit IgG (A6667) antibodies were purchased from Sigma-Aldrich and used a 1:4000 dilution. Images of blots were acquired on HyBlot ES Autoradiography Film (Thomas Scientific, Swedesboro, NJ, USA) following incubation with SuperSignal West Pico PLUS (ThermoFisher).

[2] = test system: MEK7 expression in HEK293T cells; assay: MEK7 expression, western blotting, HEK293T; type: cell-based, human; conditions: anisomycin pretreatment, compound 100 μM, 5 hours
Procedure: (§4) HSP90 was used as loading control. The blots are representative of at least three biological replicates.
(§5) We next evaluated the effects of our inhibitors on the phosphorylation activity and expression of MEK1/2, MEK3/6, and MEK7. […] We also evaluated the effects on p42/44 MAPK (ERK1/2), which functions downstream of MEK1/2.
as §3

[3] = test system: phospho-p38 MAPK in HEK293T cells; assay: p38 MAPK phosphorylation, western blotting, HEK293T; type: cell-based, human; conditions: anisomycin pretreatment, compound 100 μM, 5 hours
Procedure: as §4, §5, §3

CYP 2D6 = CYP 2D6 (Homo sapiens, UniProt P10635); assay: CYP inhibition, 2D6
Sequence of CYP 2D6 (P10635 whole entry): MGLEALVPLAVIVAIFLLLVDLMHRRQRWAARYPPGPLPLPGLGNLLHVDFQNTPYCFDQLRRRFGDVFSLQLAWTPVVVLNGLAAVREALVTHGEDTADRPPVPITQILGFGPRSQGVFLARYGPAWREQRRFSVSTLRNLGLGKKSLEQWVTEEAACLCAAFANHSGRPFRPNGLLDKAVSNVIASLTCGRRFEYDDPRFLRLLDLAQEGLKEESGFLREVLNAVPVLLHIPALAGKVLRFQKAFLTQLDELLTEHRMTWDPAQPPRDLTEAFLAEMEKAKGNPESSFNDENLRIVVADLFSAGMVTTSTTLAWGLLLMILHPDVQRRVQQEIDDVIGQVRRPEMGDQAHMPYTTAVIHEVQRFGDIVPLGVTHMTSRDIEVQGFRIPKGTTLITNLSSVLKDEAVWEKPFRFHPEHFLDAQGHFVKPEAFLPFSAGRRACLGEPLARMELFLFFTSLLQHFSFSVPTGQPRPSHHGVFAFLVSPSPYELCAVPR

MEK7 = molecular target: T1, MEK7 (Homo sapiens, UniProt O14733); assay: ADP-Glo kinase activity assay, MEK7; type: biochemical
T1 construct: purchased Carna Biosciences
T1 sequence (O14733 1-419): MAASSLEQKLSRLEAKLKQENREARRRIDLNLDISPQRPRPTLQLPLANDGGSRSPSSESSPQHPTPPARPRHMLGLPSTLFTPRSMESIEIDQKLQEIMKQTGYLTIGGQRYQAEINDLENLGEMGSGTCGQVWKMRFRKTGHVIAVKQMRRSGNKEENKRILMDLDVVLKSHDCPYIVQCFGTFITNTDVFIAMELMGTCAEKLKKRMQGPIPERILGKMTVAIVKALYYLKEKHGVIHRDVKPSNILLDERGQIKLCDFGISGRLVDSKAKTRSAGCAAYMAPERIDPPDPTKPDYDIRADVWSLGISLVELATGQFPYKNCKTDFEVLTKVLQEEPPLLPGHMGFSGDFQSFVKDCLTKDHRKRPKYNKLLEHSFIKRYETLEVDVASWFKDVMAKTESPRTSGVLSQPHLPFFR
Procedure: The compounds were then evaluated both in vitro and in a cellular system. When studying kinase inhibitors, there are a multitude of ways to evaluate selectivity across kinases.
Procedure for a 5 μL Kinase reaction using the ADP-Glo Kinase Assay Kit from Promega. Staurosporine was used as the positive control, and DMSO as the negative control. Activity of recombinant active full-length human MEK4 (Carna Biosciences) was measured using the ADP-Glo assay with recombinant full-length human p38α (MAPK14). Kinase reactions with MEK7 (Carna Biosciences) were done at the same concentration and amounts with recombinant full-length human p38α (MAPK14).
For each well, 4 ng of MEK4 and 600 ng of p38α in Kinase buffer (CST) were used, and 1 μL of this mixture was dispensed per well.
Inhibitor was prepared in a DMSO solution. A dose response dilution was done in a 384-well Echo transfer plate. […] This mixture was allowed to incubate for 30 minutes at room temperature.
Using a Mantis, 1 μL, of an 8 μM ATP solution was added to each well, and the plate was allowed to incubate for another 1 hour at room temperature. […] All experiments were done in triplicate on the plate, and at least in one separate technical duplicate.

JNK1/2/3 = assay: scanEDGE DiscoverX kinome-wide scan, JNK1/2/3; type: binding; conditions: 10 μM
Excerpt: To compare our compounds to the rest of the MEK inhibitors discovered thus far, we turned to the DiscoverX platform (KINOMEscan®, Eurofins DiscoverX), a widely used assay for comparing selectivity across the kinome. The DiscoverX platform reports the thermodynamic Kd in order to facilitate direct comparison of inhibitor affinity across the kinome, independent of ATP concentration.

[4] = test system: JNK phosphorylation in MiaPaCa2 cells; assay: anisomycin-induced JNK phosphorylation, western blotting, MiaPaCa2; type: cell-based, human; conditions: MiaPaCa2, anisomycin 45 minutes then compound 5 hours
Procedure: as §4, §1, §2, §3

`NC(=O)c1ccc(NS(=O)(=O)c2cccc(-c3n[nH]c4cc(F)ccc34)c2)cc1` [Compound 15o, 4-((3-(6-fluoro-1H-indazol-3-yl)phenyl)sulfonamido)benzamide] was tested, and the “effect on anisomycin-induced JNK phosphorylation” value [1] was “attenuated anisomycin-induced INK phosphorylation in a dose-dependent manner”, the “effect on the expression of MEK7” value [2] was “no effect” and the “effect on anisomycin-induced p38 MAPK phosphorylation” value [3] was “not affected”. The “inhibition of CYP 2D6” value (CYP 2D6) was “low inhibition”, the IC50 (MEK7; headline value per compound, read-out: MEK7 IC50) was 96 nM and the IC50 (MEK7; individual experiment, values in brackets, n=3, read-out: MEK7 IC50 of each experiment (IC50±SEM)) was 41 nM and 150 nM. For the same molecule, the “inhibition of JNK1/2/3” value (JNK1/2/3) was “did inhibit” and the “effect on anisomycin-induced JNK phosphorylation” value [4] was “attenuated anisomycin-induced JNK phosphorylation”.
